Key:
Assay type in all cases: in vivo
Details in all cases: sprayed after 8 days cultivation, evaluated after 13 days, scores from 10 to 0 (10=total damage to plant; 0=no damage to plant)
SOLNI = assay: Example B1 herbicidal action post-emergence, SOLNI
Description: (§1) Seeds of a variety of test species were sown in standard soil in pots. After 8 days cultivation (post-emergence) under controlled conditions in a glasshouse (at 24/16° C., day/night; 14 hours light; 65% humidity), the plants were sprayed with an aqueous spray solution derived from the formulation of the technical active ingredient in acetone/water (50:50) solution containing 0.5% Tween 20 (polyoxyethelyene sorbitan monolaurate, CAS RN 9005-64-5). The test plants were then grown under controlled conditions in a glasshouse (at 24/16° C., day/night; 14 hours light; 65% humidity) and watered twice daily. After 13 days, the test was evaluated and the assessed scores, from 10 to 0, are tabulated in Table B1 (10=total damage to plant; 0=no damage to plant).

ECHCG = assay: Example B1 herbicidal action post-emergence, ECHCG
Description: as §1

SETFA = assay: Example B1 herbicidal action post-emergence, SETFA
Description: as §1

IPOHE = assay: Example B1 herbicidal action post-emergence, IPOHE
Description: as §1

AMARE = assay: Example B1 herbicidal action post-emergence, AMARE
Description: as §1

| Compound | assessed score, application post-emergence, SOLNI (SOLNI; Rate 1000 g/ha) | assessed score, application post-emergence, ECHCG (ECHCG; Rate 1000 g/ha) | assessed score, application post-emergence, SETFA (SETFA; Rate 1000 g/ha) | assessed score, application post-emergence, IPOHE (IPOHE; Rate 1000 g/ha) | assessed score, application post-emergence, AMARE (AMARE; Rate 1000 g/ha) | assessed score, application post-emergence, SOLNI (SOLNI; Rate 250 g/ha) | assessed score, application post-emergence, ECHCG (ECHCG; Rate 250 g/ha) | assessed score, application post-emergence, SETFA (SETFA; Rate 250 g/ha) | assessed score, application post-emergence, IPOHE (IPOHE; Rate 250 g/ha) | assessed score, application post-emergence, AMARE (AMARE; Rate 250 g/ha) |
| --- | --- | --- | --- | --- | --- | --- | --- | --- | --- | --- |
| Cc1cc(C)c(C2=C(O)c3nccnc3CS2(=O)=O)c(C)c1 [Compound C20] | 7 | 4 | 4 | 7 | 1 |  |  |  |  |  |
| O=S1(=O)Cc2nccnc2C(O)=C1c1c(F)ccc(Br)c1Cl [Compound C21, 7-(3-bromo-2-chloro-6-fluoro-phenyl)-6,6-dioxo-5,6-dihydro-6-thia-1,4-diaza-naphthalen-8-ol] | 10 | 7 | 7 | 8 | 9 |  |  |  |  |  |
| O=S1(=O)Cc2nccnc2C(O)=C1c1ccc(Br)cc1C(F)(F)F [Compound C22] | 9 | 5 | 5 | 7 | 10 |  |  |  |  |  |
| O=S1(=O)Cc2nccnc2C(O)=C1c1c(Cl)cc(Cl)cc1Cl [Compound C23] | 9 | 8 | 7 | 8 | 8 |  |  |  |  |  |
| CCc1cc(-c2ccc(Cl)cc2Cl)ccc1C1=C(O)c2nccnc2CS1(=O)=O [Compound C24] | 6 | 7 | 10 | 3 | 10 |  |  |  |  |  |
| CCC1c2nccnc2C(O)=C(c2c(Cl)cccc2C(F)(F)F)S1(=O)=O (stereo not drawn) [Compound E1, 7-(2-chloro-6-trifluoromethyl-phenyl)-5-ethyl-6,6-dioxo-5,6-dihydro-6-thia-1,4-diaza-naphthalen-8-ol] | 9 | 7 | 8 | 7 | 9 |  |  |  |  |  |
| O=S1(=O)C(c2c(F)ccc(Br)c2Cl)=C(O)c2nccnc2C1CC(F)F (stereo not drawn) [Compound E9] | 9 | 3 | 5 | 8 | 10 |  |  |  |  |  |
| CCC1c2nccnc2C(O)=C(c2c(F)ccc(Br)c2Cl)S1(=O)=O (stereo not drawn) [Compound E10] |  |  |  |  |  | 7 | 4 | 7 | 8 | 7 |
| CC1c2nccnc2C(O)=C(c2c(F)ccc(Br)c2Cl)S1(=O)=O (stereo not drawn) [Compound E11] | 10 | 8 | 8 | 9 | 8 |  |  |  |  |  |
| CCC1c2nccnc2C(O)=C(c2ccc(Br)cc2C(F)(F)F)S1(=O)=O (stereo not drawn) [Compound E14] | 10 | 7 | 6 | 7 | 9 |  |  |  |  |  |
| C#CCC1c2nccnc2C(O)=C(c2c(C)cc(C)cc2C)S1(=O)=O (stereo not drawn) [Compound E16] | 8 | 2 | 2 | 5 | 5 |  |  |  |  |  |
| Cc1cc(C)c(C2=C(O)c3nccnc3C(CC(F)F)S2(=O)=O)c(C)c1 (stereo not drawn) [Compound E17] | 7 | 10 | 10 | 7 | 10 |  |  |  |  |  |
| Cc1cc(C)c(C2=C(O)c3nccnc3C(C)S2(=O)=O)c(C)c1 (stereo not drawn) [Compound E19] | 8 | 5 | 5 | 7 | 3 |  |  |  |  |  |
| CC#CCC1c2nccnc2C(O)=C(c2c(F)ccc(Br)c2Cl)S1(=O)=O (stereo not drawn) [Compound E21] | 9 | 7 | 4 | 8 | 6 |  |  |  |  |  |
| O=S1(=O)C(c2c(F)ccc(Br)c2Cl)=C(O)c2nccnc2C1Cc1ccccc1 (stereo not drawn) [Compound E23] | 8 | 8 | 4 | 6 | 6 |  |  |  |  |  |
| O=S1(=O)C(c2c(F)ccc(Br)c2Cl)=C(O)c2nccnc2C1Cc1ccc(Cl)s1 (stereo not drawn) [Compound E24] | 7 | 0 | 0 | 5 | 6 |  |  |  |  |  |
| Cc1cc(C)c(C2=C(O)c3nccnc3C(C)(C)S2(=O)=O)c(C)c1 [Compound F1, 5,5-dimethyl-6,6-dioxo-7-(2,4,6-trimethyl-phenyl)-5,6-dihydro-6-thia-1,4-diaza-naphthalen-8-ol] | 10 | 8 | 8 | 8 | 10 |  |  |  |  |  |
| CC1(C)c2nccnc2C(O)=C(c2c(F)ccc(Br)c2Cl)S1(=O)=O [Compound F2] | 10 | 8 | 9 | 9 | 10 |  |  |  |  |  |
